Assay [1] concerns untransfected HEK 293 cells. In words: Whole-cell patch clamp of untransfected HEK 293 cells. Format: cell-based, human. Conditions: with or without cAMP or forskolin. (In general: The patch-clamp technique gives a direct electrical read-out from membranes.)
The target in assay [2] is T1, α1B-1α2bβ1-2 (Homo sapiens, UniProt Q00975).
T1 construct: A full-length α1B DNA clone was constructed by ligating portions of the partial cDNA clones; expressed in transfected cells; host or cells: HEK293 (transient)
T1 sequence (Q00975 whole entry, looked up): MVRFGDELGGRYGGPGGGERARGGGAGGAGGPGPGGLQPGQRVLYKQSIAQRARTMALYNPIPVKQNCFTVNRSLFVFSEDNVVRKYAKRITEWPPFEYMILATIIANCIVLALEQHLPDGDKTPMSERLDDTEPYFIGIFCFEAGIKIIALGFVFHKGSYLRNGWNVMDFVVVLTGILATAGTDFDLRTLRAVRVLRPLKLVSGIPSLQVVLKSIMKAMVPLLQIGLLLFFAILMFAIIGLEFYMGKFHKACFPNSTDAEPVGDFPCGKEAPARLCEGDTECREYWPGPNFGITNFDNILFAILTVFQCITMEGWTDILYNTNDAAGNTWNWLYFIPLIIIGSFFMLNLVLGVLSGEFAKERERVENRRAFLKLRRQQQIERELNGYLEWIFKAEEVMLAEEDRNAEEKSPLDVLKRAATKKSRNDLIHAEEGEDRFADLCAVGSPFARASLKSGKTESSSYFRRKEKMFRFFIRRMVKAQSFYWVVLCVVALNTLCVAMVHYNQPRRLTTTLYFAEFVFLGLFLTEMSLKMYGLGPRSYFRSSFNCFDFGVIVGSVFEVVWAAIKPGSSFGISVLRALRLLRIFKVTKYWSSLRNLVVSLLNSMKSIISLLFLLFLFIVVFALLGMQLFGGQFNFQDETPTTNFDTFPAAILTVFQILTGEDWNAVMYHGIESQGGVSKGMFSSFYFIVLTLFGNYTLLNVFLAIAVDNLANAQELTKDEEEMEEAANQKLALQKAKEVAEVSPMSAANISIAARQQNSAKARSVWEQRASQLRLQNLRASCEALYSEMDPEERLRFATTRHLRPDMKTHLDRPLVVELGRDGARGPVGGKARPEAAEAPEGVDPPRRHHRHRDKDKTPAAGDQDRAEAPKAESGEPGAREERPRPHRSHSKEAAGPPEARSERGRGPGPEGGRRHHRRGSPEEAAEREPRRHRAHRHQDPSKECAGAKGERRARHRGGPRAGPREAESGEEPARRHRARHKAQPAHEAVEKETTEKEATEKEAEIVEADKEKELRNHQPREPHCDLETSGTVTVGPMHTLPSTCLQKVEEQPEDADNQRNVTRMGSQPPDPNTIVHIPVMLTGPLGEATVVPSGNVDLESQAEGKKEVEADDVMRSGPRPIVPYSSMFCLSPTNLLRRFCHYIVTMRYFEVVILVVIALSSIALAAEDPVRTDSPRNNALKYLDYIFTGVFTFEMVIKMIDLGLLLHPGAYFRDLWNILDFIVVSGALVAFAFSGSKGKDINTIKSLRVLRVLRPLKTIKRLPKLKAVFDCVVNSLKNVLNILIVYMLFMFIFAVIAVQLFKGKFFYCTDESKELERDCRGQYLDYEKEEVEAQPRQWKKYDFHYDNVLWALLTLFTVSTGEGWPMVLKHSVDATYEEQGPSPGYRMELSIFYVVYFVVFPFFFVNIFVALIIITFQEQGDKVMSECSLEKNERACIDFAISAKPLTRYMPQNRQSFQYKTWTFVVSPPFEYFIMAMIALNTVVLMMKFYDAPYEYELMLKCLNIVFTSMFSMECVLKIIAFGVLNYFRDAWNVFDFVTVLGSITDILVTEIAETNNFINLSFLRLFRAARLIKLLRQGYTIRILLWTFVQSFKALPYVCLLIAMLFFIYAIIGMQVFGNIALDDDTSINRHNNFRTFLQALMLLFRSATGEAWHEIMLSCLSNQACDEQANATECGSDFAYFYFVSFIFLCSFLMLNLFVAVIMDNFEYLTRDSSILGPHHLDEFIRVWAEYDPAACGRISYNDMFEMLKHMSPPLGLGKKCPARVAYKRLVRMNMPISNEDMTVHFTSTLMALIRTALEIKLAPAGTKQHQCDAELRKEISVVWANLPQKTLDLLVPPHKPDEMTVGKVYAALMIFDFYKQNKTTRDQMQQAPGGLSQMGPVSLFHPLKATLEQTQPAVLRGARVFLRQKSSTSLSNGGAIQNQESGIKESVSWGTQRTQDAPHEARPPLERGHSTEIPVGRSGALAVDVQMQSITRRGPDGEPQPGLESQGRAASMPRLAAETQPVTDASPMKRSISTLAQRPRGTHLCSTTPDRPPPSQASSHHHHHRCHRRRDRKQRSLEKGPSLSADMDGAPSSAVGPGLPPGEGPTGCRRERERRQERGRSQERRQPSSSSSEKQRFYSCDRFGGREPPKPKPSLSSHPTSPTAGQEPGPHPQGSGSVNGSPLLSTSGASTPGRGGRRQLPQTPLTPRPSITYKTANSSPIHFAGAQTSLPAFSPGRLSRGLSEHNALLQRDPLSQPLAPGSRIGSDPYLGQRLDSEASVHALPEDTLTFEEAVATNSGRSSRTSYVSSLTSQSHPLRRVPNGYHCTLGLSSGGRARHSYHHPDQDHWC
The format is cell-based.

In assay [3] the test system is human neuronal calcium channel α2 and β1 subunits. In words: Two-electrode voltage clamp of Xenopus oöcytes injected with α2 and β1 transcripts. Conditions: Bay K 8644; n=11. For orientation: In two-electrode clamp one electrode senses voltage and the other passes current.
The target of assay [4] is T1, α1B-1α2bβ1-2. The format is binding.
For assay [5], the target named is T2, α1B-1α2bβ1-3 (Homo sapiens, UniProt Q00975).
T2 construct: A full-length α1B DNA clone was constructed by ligating portions of the partial cDNA clones; expressed in transfected cells; host or cells: HEK293 (transient)
T2 sequence (Q00975 whole entry, looked up): as above
Format: binding.

For assay [6], the target named is T3, α1B-1β1-2 (Homo sapiens, UniProt Q00975).
T3 construct: A full-length α1B DNA clone was constructed by ligating portions of the partial cDNA clones; expressed in transfected cells; host or cells: HEK293 (transient)
T3 sequence (Q00975 whole entry, looked up): as above
Format: binding.

Assay [7] has as its target T4, α1B-1β1-3 (Homo sapiens, UniProt Q00975).
T4 construct: A full-length α1B DNA clone was constructed by ligating portions of the partial cDNA clones; expressed in transfected cells; host or cells: HEK293 (transient)
Format: binding.

Assay [8] concerns the target T5, α1B-1α2b (Homo sapiens, UniProt Q00975).
T5 construct: A full-length α1B DNA clone was constructed by ligating portions of the partial cDNA clones; expressed in transfected cells; host or cells: HEK293 (transient)
Format: binding.

In assay [9] the target is T6, α1B-2a2bβ1-2 (Homo sapiens, UniProt Q00975).
T6 construct: Full-length DNA clones and corresponding RNA transcripts, encoding α1, including splice variants of α1A, α1B; expressed in transfected cells; host or cells: HEK293 (transient)
T6 sequence (Q00975 1-2237 isoform Q00975-2): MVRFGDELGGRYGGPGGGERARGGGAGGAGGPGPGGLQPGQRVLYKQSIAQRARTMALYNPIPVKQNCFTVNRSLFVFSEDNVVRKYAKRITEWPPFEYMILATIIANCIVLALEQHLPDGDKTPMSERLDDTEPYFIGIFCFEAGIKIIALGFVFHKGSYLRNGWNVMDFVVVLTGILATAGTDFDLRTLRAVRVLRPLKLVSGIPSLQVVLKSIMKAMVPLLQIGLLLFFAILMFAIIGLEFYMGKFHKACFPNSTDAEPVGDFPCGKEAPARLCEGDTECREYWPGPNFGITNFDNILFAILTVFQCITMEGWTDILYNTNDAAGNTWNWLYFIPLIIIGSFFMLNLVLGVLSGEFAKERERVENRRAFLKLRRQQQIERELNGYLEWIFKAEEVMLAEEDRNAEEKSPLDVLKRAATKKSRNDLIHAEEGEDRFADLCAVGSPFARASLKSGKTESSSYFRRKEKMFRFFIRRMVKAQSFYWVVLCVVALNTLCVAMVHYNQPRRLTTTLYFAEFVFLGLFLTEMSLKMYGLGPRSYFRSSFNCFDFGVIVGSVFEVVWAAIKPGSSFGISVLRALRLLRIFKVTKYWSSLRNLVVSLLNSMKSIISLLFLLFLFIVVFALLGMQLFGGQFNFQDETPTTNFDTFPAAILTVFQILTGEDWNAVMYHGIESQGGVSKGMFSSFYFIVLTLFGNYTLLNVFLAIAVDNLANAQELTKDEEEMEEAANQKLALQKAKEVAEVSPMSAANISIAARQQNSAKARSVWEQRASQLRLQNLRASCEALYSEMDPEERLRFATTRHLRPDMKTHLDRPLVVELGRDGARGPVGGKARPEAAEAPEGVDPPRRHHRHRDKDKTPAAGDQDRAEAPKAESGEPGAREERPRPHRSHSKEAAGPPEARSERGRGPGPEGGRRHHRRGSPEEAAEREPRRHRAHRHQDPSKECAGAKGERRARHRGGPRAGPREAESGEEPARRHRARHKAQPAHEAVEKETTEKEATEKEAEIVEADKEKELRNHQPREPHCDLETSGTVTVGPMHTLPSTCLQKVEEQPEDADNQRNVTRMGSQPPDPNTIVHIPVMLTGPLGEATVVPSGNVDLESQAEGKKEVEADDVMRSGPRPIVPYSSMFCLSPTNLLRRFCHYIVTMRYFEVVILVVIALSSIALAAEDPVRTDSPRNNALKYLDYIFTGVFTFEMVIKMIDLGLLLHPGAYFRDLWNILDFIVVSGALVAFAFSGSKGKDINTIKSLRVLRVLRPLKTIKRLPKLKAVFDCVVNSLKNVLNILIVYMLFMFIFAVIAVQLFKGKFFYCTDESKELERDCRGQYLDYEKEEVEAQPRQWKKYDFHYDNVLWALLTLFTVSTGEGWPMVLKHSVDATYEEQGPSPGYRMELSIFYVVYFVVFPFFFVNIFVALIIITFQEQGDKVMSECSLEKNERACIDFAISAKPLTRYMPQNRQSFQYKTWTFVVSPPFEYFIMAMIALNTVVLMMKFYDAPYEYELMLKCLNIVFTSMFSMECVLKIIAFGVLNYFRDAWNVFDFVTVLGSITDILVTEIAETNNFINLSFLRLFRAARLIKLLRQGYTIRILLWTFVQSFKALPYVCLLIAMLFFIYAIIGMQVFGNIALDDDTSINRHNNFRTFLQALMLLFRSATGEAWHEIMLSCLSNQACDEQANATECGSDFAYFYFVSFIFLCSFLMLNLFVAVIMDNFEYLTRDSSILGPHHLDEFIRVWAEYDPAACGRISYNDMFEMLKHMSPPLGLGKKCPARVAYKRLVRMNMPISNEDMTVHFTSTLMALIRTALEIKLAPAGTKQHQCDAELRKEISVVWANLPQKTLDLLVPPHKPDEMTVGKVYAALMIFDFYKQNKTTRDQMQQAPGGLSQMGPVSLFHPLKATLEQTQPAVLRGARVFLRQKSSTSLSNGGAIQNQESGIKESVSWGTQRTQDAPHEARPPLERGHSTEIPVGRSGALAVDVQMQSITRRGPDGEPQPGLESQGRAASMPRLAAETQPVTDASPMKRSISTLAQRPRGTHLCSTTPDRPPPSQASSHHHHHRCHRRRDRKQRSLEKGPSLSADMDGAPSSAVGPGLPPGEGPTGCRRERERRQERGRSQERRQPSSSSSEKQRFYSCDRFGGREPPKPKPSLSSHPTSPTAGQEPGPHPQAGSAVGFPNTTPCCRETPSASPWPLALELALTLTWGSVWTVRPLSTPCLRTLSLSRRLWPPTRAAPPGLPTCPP
The format is binding.

Assay [10] addresses T7, α1B-2α2bβ1-3 (Homo sapiens, UniProt Q00975).
T7 construct: Full-length DNA clones and corresponding RNA transcripts, encoding α1, including splice variants of α1A, α1B; expressed in transfected cells; host or cells: HEK293 (transient)
Format: binding.

Assay [11] concerns the target T8, α1B-2β1-2 (Homo sapiens, UniProt Q00975).
T8 construct: Full-length DNA clones and corresponding RNA transcripts, encoding α1, including splice variants of α1A, α1B; expressed in transfected cells; host or cells: HEK293 (transient)
The format is binding.

The target in assay [12] is T9, α1B-2β1-3 (Homo sapiens, UniProt Q00975).
T9 construct: Full-length DNA clones and corresponding RNA transcripts, encoding α1, including splice variants of α1A, α1B; expressed in transfected cells; host or cells: HEK293 (transient)
Format: binding.

For assay [13], the target named is T10, α1B-1, α2b, and β1-2 subunits (Homo sapiens, UniProt Q00975).
T10 construct: A full-length α1B DNA clone was constructed by ligating portions of the partial cDNA clones; expressed in transfected cells; host or cells: HEK293 (transient)
T10 sequence (Q00975 whole entry, looked up): as the sequence (Q00975 whole entry, looked up) above
The format is binding.

T4 sequence (Q00975 whole entry, looked up): as above
T5 sequence (Q00975 whole entry, looked up): as above
T7 sequence (Q00975 1-2237 isoform Q00975-2): as the sequence (Q00975 1-2237 isoform Q00975-2) above

In the case of `COC(=O)C1=C(C)NC(C)=C([N+](=O)[O-])C1c1ccccc1C(F)(F)F` (centres unmarked) [Bay K 8644], the “effects of Bay K 8644 (current magnitude, tail currents, activation voltage)” value in assay [1] is “No such effects”. Besides, the “effect on channel activity” value in assay [2] (1 μM, n=4) is “no discernable effect”. In assay [3], the “sensitivity of inward barium currents” value is on record as “insensitive”.
On to `C[C@@H](O)[C@@H]1NC(=O)[C@H](Cc2ccc(O)cc2)NC(=O)[C@@H]2C[C@@H](O)CN2C(=O)[C@H](CC(N)=O)NC(=O)[C@@H]2CSSC[C@@H]3NC(=O)[C@H](CO)NC(=O)[C@H](CO)NC(=O)CNC(=O)[C@@H]4C[C@@H](O)CN4C(=O)[C@H](CO)NC(=O)[C@H](CCCCN)NC(=O)[C@@H](N)CSSC[C@H](NC(=O)[C@H](CSSC[C@@H](C(=O)N[C@@H](Cc4ccc(O)cc4)C(N)=O)NC(=O)[C@H](CCCNC(=N)N)NC(=O)[C@H](CCCCN)NC1=O)NC(=O)[C@H](CC(N)=O)NC(=O)[C@H](Cc1ccc(O)cc1)NC(=O)[C@H](CO)NC(=O)[C@H]([C@@H](C)O)NC(=O)[C@@H]1C[C@@H](O)CN1C(=O)[C@H](CO)NC3=O)C(=O)N[C@@H](CCCNC(=N)N)C(=O)N[C@@H](CO)C(=O)N2` [^125I-ω-CgTx GVIA], for which the “Bmax (sites/cell)” value is reported as 45,324 ± 15,606 sites/cell in [4]; 91,004 ± 37,654 sites/cell in assay [5]; 5,756 ± 2,163 sites/cell in assay [6]; 8,729 ± 2,980 sites/cell in assay [7]; 2,256 ± 356 sites/cell in assay [8]; 19,371 ± 3,798 sites/cell in [9]. For the same molecule, the entries for the “Bmax (sites/cell)” value in [10], in assay [11] and in [12] were 37,652 ± 8,129 sites/cell, 2,126 ± 412 sites/cell and 2,944 ± 1,168 sites/cell, respectively.
Regarding `[Cd]` [cadmium], in assay [2] (50 μM), the blockage entry is “rapid, complete, and reversible”.
Turning to `C[C@@H](O)[C@@H]1NC(=O)[C@H](Cc2ccc(O)cc2)NC(=O)[C@@H]2C[C@@H](O)CN2C(=O)[C@H](CC(N)=O)NC(=O)[C@@H]2CSSC[C@@H]3NC(=O)[C@H](CO)NC(=O)[C@H](CO)NC(=O)CNC(=O)[C@@H]4C[C@@H](O)CN4C(=O)[C@H](CO)NC(=O)[C@H](CCCCN)NC(=O)[C@@H](N)CSSC[C@H](NC(=O)[C@H](CSSC[C@@H](C(=O)N[C@@H](Cc4ccc(O)cc4)C(N)=O)NC(=O)[C@H](CCCNC(=N)N)NC(=O)[C@H](CCCCN)NC1=O)NC(=O)[C@H](CC(N)=O)NC(=O)[C@H](Cc1ccc(O)cc1)NC(=O)[C@H](CO)NC(=O)[C@H]([C@@H](C)O)NC(=O)[C@@H]1C[C@@H](O)CN1C(=O)[C@H](CO)NC3=O)C(=O)N[C@@H](CCCNC(=N)N)C(=O)N[C@@H](CO)C(=O)N2` [ω-CgTX], in assay [2], the block of activity result is “blocked the activity completely”, the block of channels result is “blocked irreversibly” and the “time to complete block” value was at most 2 min. Besides, the “binding capacity (Bmax)” value in [13] was 28,710±11,950 sites per cell.

These data come from US6528630B1 (priority 1997, dated 2003).
